The values below come from patent US8895717B2, “Delivery of siRNA by neutral lipid compositions” (The Board of Regents of the University of Texas System, priority 2005, dated 2014).

d = 2'-deoxy (DNA); r = 2'-OH (RNA)

One series deals with caspase-3. In words: Caspase-3 activity in ovarian cancer cells (DEVD-AFC). In kind it is cell-based, human. The settings on record: taxane-sensitive and taxane-resistant cell lines. As to the method:
Ovarian cancer cells (1×10^6) in culture (six-well plates) were treated with or without docetaxel at the cell line specific IC50 or IC90 concentration for 24 hours. After washing with PBS, cells were lysed in 50 μL of cell lysis buffer provided. Caspase-3, caspase-8, and caspase-9 activities were measured with the appropriate apoptosis detection kit (BD Biosciences/Clontech, Palo Alto, Calif.), using substrate DEVD-AFC for caspase-3, IETD-AFC for caspase-8, and LEHD-AMC for caspase-9.

For the next series, the system named is FAK. Put plainly: In vivo down regulation of FAK by siRNA in DOPC (Western blot, IHC). The settings on record: for FAK expression at the conclusion of the therapy studies: HeyA8, IHC. The arrangement: species or system human. On the procedure: (§1) siRNA for in vivo delivery was incorporated into the phospholipid 1,2-dioleoyl-sn-glycero-3-phosphatidylcholine (DOPC). DOPC and siRNA were mixed in the presence of excess tertiary-butanol at a ratio of […], as previously described (Landen et al., 2005). Tween-20 was added to the mixture at a ratio of 1:19. The mixture was vortexed, frozen in an acetone/dry ice bath, and lyophilized. Before in vivo administration, this preparation was hydrated with normal (0.9%) saline at a concentration of 15 μg/ml to achieve the desired dose of 150-200 μl per injection. To estimate the quantity of siRNA not taken up by liposomes free siRNA was separated from liposomes by using filter units with a 30,000 nominal molecular weight limit (Millipore Corp, Billerica, Mass.). The liposomal suspension was added to the filters and centrifuged at 5,000 g for 40 min at room temperature. Fractions were collected, the material trapped in the filter was reconstituted with 0.9% saline, and the amount of siRNA in the collected fraction and eluent were measured by spectrophotometry.
Cells were lysed in modified RIPA buffer (50 mM Tris, 150 mM NaCl, 1% triton, 0.5% deoxycholate plus 25 µg/ml leupeptin, 10 µg/ml aprotinin, 2 mM EDTA, and 1 mM sodium orthovanadate (Sigma Chemical Co, St. Louis, Mo.) as previously described (Sood et al., 2004; Sood et al., 2002). A sample was removed from culture dishes by cell scraping and centrifuged at 12,500 rpm for 30 min. The […] protein concentration of the supernatant was determined using a bicinchoninic acid protein assay reagent kit (Pierce, Rockford, Ill.), and whole cell lysates were analyzed by 7.5% SDS-PAGE. Samples were then transferred to nitrocellulose membrane by semi-dry transfer (BioRad Laboratories, Hercules, Calif.). Membranes were blocked with 5% nonfat milk, and incubated with 0.25 μg/mL anti-FAK antibody (Biosource, International Camarillo, Calif.) for 1 h at room temperature. Antibody was detected with 0.167 μg/mL HRP-conjugated anti-mouse secondary antibody (The Jackson Laboratory, Bar Harbor, Me.) and developed with an enhanced chemiluminescence detection kit (Pierce). Equal loading was confirmed by detection of β-actin (0.1 μg/ml, anti-β-actin antibody, Sigma Chemical). Densitometric analysis was performed using the Scion Imaging software (Scion Corporation, Frederick, Md.).
To evaluate the therapeutic effect of the combination of FAK siRNA and docetaxel in a mouse model, preliminary dose-response studies were performed experiments for FAK siRNA. HeyA8 cells were implanted i.p. and treatment was initiated 21 days following tumor injection when i.p. tumors could be assessed by palpation. Mice were randomly distributed into three groups (n=10 per group) and were treated with a single dose of PBS, control siRNA or FAK siRNA at 150 μg/kg in 200 μl volume. Following treatment, 3 mice were sacrificed at definite time-points (24 h, 48 h, 96 h and 6 days). Fluorescent IHC analysis was performed on any excised peritoneal cavity tumors as described below.
The inventors investigated the inhibition of FAK expression in combination with docetaxel and the in vivo therapeutic potential. Prior to initiating therapy studies, the ability of FAK-targeted siRNA incorporated in DOPC to down-regulate FAK in vivo was assessed. Nude mice bearing intraperitoneal HeyA8 tumors were injected with a single dose of FAK siRNA i.p., and tumors were harvested 1, 2, 4, and 6 days after injection for Western blot analysis and immunohistochemistry for assessing level of FAK expression. […] FAK expression was not affected by control siRNA. Twice weekly administration of siRNA (150 μg/kg) was selected as an exemplary dosing schedule for subsequent therapy experiments.
(In general: Immunoblotting shows a protein as a band on a membrane.)

A further series concerns HeyA8-MDR cells. In words: In vivo therapy with DOPC-FAK siRNA, HeyA8-MDR model. The settings on record: for Incidence (%) / No. Nodules: siRNA in DOPC twice weekly, docetaxel 50 μg weekly. The arrangement: species or system nude mice. On the procedure:
as §1
To produce tumors, SKOV3ip1, Hey A8-MDR cells (1×10^6 cells/0.2 ml of HBSS) and Hey A8 cells (2.5×10^5 cells/0.2 ml of HBSS) were injected interperitoneally (i.p.) into the mice. For in vivo injections, cells were trypsinized and centrifuged at 1000 rpm for 7 minutes at 4° C., washed twice with PBS and reconstituted in serum-free Hank's balanced salt solution (HBSS, Life Technologies, Carlsbad, Calif.). Only single-cell suspensions with >95% viability, as determined by trypan blue exclusion, were used for the in vivo injections. Mice (n=10 per group) were monitored for adverse effects of therapy and were sacrificed on day 35 (SKOV3ip1) or day 28 (HeyA8 or HeyA8-MDR) or when any of the mice began to appear moribund. Mouse weight, tumor weight, and tumor distribution were recorded. Tissue specimens were snap frozen for lysate preparation, fixed in formalin for paraffin embedding or frozen on OCT compound (Miles, Inc., Elkhart, Ind.) for frozen slide preparation.
Based on the results of preliminary dose-response studies, a series of three separate therapy studies were initiated using the optimal FAK siRNA dosage. Tumor cells were injected i.p. and 7 days later, the mice were randomly assigned to five treatment groups: empty liposome twice weekly, non-specific control […] siRNA (3 μg) twice weekly, control FAK siRNA (3 μg) twice weekly in combination with 50 μg docetaxel weekly, FAK siRNA twice weekly and FAK siRNA (3 μg) twice weekly in addition to 50 μg docetaxel weekly.
Chemotherapy-resistance is a common clinical problem in the management of ovarian carcinoma. Despite high response rates with initial therapy, most patients develop recurrent tumors that are resistant to taxane and platinum chemotherapy (McGuire et al., 1996). […] Consequently FAK downregulation and its effects on sensitization of resistant tumors to chemotherapy, using the HeyA8-MDR cell line (FIG. 13C) was assessed. Therapy was started 7 days after injection of tumor cells into nude mice according to the 5 groups outlined above.

As to “control siRNA: sense r(UUUUCCGAACGUGUCACGU)dTT, antisense r(ACGUGACACGUUCGGAGAA)dTT, no homology with human mRNA; in vivo in DOPC (sense UUUUCCGAACGUGUCACGUTT; antisense ACGUGACACGUUCGGAGAATT; sugars from the 5' end r19 d2, backbone not given here)”, the “caspase-3 activity, siRNA alone” value with caspase-3 was “did not potentiate the activity of caspase-3”. In addition, the “FAK expression at the conclusion of the therapy studies” value with FAK is given as “not suppressed”. Further, the FAK expression entry with FAK (single dose) is “not affected”. Besides, in the series on HeyA8-MDR cells, the “Incidence (%)” value stood at 90% and the “No. Nodules” value was determined as 4.4.

Turning to “FAK siRNA: sense r(CCACCUGGGCCAGUAUUAU)d(TT), antisense r(AUAAUACUGGCCCAGGUGG)d(TT); for in vivo delivery incorporated into DOPC (sense CCACCUGGGCCAGUAUUAUTT; antisense AUAAUACUGGCCCAGGUGGTT; sugars from the 5' end r19 d2, backbone not given here)”, the “caspase-3 activity, siRNA alone” value in the series with caspase-3 is “did not potentiate the activity of caspase-3”. In addition, the “FAK expression at the conclusion of the therapy studies” value in the series with FAK is listed as “sustained suppression of FAK expression”. Further, the “reduction in FAK levels” value with FAK (HeyA8 tumors, within 48 hours of a single dose in DOPC, Western blot) was greater than 80%. For the same substance, in the series on FAK (single dose in DOPC), the “persistence of FAK reduction” value is “at least 4 days”. Moreover, in the series with FAK (single treatment in DOPC), the “recovery of FAK expression” value was “began to return to basal levels by 6 days”. In the series on HeyA8-MDR cells, the “reduction in tumor growth compared to control” value is reported as “about 44%”, the “Incidence (%)” value is 70% and the “No. Nodules” value is reported as 2.1.
